# Measured values published in patent US10400004B2, “Chemical synthesis method of phillyrin” (priority 2014, dated 2019).
# Like-named read-outs stand apart in the source and are kept apart here. Marks after values point to notes of the source that are not given here.
# Assays:
# [1] = tested on: Vero cells; test: Drug cytotoxicity assay (MTT) on Vero cells; format: cell-based, African green monkey; conditions: 72 h, Probit regression
# Method: Vero cells were subcultured for 1-2 days to form a film. […] The digestion was drained after needle-like holes occurred on the cell surface, then cells were dispersed with a few milliliters of medium, counted, then diluted to about 5×10^7 cells/L with DMEM containing 10% fetal bovine serum and transferred to a 96-pore culture plate until monolayer formed.
# Cytotoxicity test: the drugs were diluted according to the concentrations shown in Table 1-1 for cytotoxicity assays.
# Different concentrations of drugs diluted with the above maintenance medium (DMEM containing 2% fetal calf serum) were added dropwise to Vero monolayer cells with 0.2 ml per pore, and for each concentration, the drugs were added in sextuplicate in 6 pores respectively. In addition, 6 pores were set up as normal control (without drugs) while another 6 pores as blank control (medium only). Cells were grown in a 37° C. incubator under 5% CO2. CPE was visualized under the invert microscope and recorded daily. After 72 h, 20 μL MTT solution (5 mg·mL^−1) was added into each pore and incubated for 4 h. The culture medium in each pore was sucked and discarded, 100 μL DMSO was added to each pore. Then the culture was shaken for 5 min, measured OD value at 492 nm to calculate the cell survival ratio. The cell survival ratio was analyzed using a Probit regression model in SPSS 18.0 statistical software, and the maximal nontoxic concentration (TC0) and median toxic concentration (TC50) of drugs against Vero cells were calculated.
# [2] = tested on: Influenza virus; test: Impact of the drugs on virus-induced cytopathy (MTT, ER %); format: cell-based
# [3] = tested on: Parainfluenza virus; test: as above; format: cell-based
# [4] = tested on: Coxsackie virus A16 (CoxA16); test: as above; format: cell-based
# [5] = tested on: respiratory syncytical virus (RSV); test: as above; format: cell-based
# [6] = tested on: Herpes simplex virus type I (HSV-1); test: as above; format: cell-based
# [7] = tested on: Adenovirus (AdV); test: as above; format: cell-based
# [8] = tested on: enterovirus EV71; test: as above; format: cell-based
# [9] = tested on: Coxsackie virus B3 (CVB3); test: as above; format: cell-based
# [10] = tested on: influenza virus; format: in vivo, Kunming mice
# [11] = tested on: parainfluenza virus; format: in vivo, Kunming mice
# [12] = Solubility of the synthesized white solid; format: physicochemical; conditions: white solid of Embodiment 1
# [13] = summary of Table 1-3, Vero cells
# [14] = mice, parainfluenza virus 15LD50 nasally, 3.25 mg/kg/d (low-dose) intragastric, 5 days
# [15] = mice, influenza virus 15LD50 nasally, 19.5 mg/kg/d intragastric, 5 days
# [16] = mice, parainfluenza virus 15LD50 nasally, 19.5 mg/kg/d intragastric, 5 days
molecule,measurement,setting,value
phillyrin,Maximal non-cytotoxic concentration (TC0),[1],0.006 g/L
same,Median toxic concentration (TC50),[1],550 µg/mL
same,antiviral efficiency (ER %),[2],75.38** %
same,inhibitory effect (in words),[2]; [13],significant
same,antiviral efficiency (ER %),[3],84.96** %
same,inhibitory effect (in words),[3]; [13],significant
same,antiviral efficiency (ER %),[4],75.08** %
same,inhibitory effect (in words),[4]; [13],significant
same,antiviral efficiency (ER %),[5],80.40** %
same,inhibitory effect (in words),[5]; [13],significant
same,antiviral efficiency (ER %),[6],85.00** %
same,inhibitory effect (in words),[6]; [13],significant
same,antiviral efficiency (ER %),[7],75.14** %
same,inhibitory effect (in words),[7]; [13],significant
same,antiviral efficiency (ER %),[8],84.85** %
same,inhibitory effect (in words),[8]; [13],significant
same,antiviral efficiency (ER %),[9],75.27** %
same,inhibitory effect (in words),[9]; [13],significant
same,effect on mice viral pneumonia (in words),"[10]; influenza virus, 3.25 to 13.0 mg/kg/d",significant inhibitory effect
same,hemagglutination titers (in words),"[10]; influenza virus, 3.25 to 13.0 mg/kg/d, compared to virus control group",greatly reduce
same,Lung index (X ± S),"[10]; mouse, in vivo, 3.25 mg/kg/day",1.339 ± 0.045
same,Lung index Inhibitory rate (%),"[10]; mouse, in vivo, 3.25 mg/kg/day",10.82%
same,Lung index (X ± S),"[10]; mouse, in vivo, 13 mg/kg/day",1.290 ± 0.041
same,Lung index Inhibitory rate (%),"[10]; mouse, in vivo, 13 mg/kg/day",14.51%
same,Lung index (X ± S),[11]; [14],1.360 ± 0.052
same,Lung index Inhibitory rate (%),[11]; [14],15.03%
same,Lung index (X ± S),"[11]; mouse, in vivo, 13 mg/kg/day",1.2297 ± 0.071
same,Lung index Inhibitory rate (%),"[11]; mouse, in vivo, 13 mg/kg/day",19.01%
same,effect on mice viral pneumonia (in words),"[11]; parainfluenza virus, 3.25 to 13.0 mg/kg/d",significant inhibitory effect
same,hemagglutination titers (in words),"[11]; parainfluenza virus, 3.25 to 13.0 mg/kg/d, compared to virus control group",greatly reduce
same,solubility (in words),[12],soluble in chloroform and methanol
"CCOC(=O)C1=C[C@@H](OC(CC)CC)[C@H](NC(C)=O)[C@@H](N)C1 [Oseltamivir phosphate, reference compound]",Maximal non-cytotoxic concentration (TC0),[1],0.28 g/L
same,Median toxic concentration (TC50),[1],832 µg/mL
same,antiviral efficiency (ER %),"[2]; Vero cells, 100 TCID50, 72 h, MTT, drug at maximal non-cytotoxic concentration or so (Table 1-2 last row: phillyrin 0.01, ribavirin 0.70, oseltamivir phosphate 0.30 g/L)",81.76** %
same,antiviral efficiency (ER %),[3],94.52** %
same,antiviral efficiency (ER %),[4],2.95%
same,antiviral efficiency (ER %),[5],37.60%
same,antiviral efficiency (ER %),[6],66.56** %
same,antiviral efficiency (ER %),[7],10.31%
same,antiviral efficiency (ER %),[8],51.86%
same,antiviral efficiency (ER %),[9],1.64%
same,Lung index (X ± S),[10]; [15],1.191 ± 0.062
same,Lung index Inhibitory rate (%),[10]; [15],20.71%
same,Lung index (X ± S),[11]; [16],1.256 ± 0.057
same,Lung index Inhibitory rate (%),[11]; [16],21.56%
